Experimental data: PubChem BioAssay AID2060894 (Molecular Pharmacology Branch, DTP, NCI, 2025)
Values belong to the molecule of their own block, whether it stands above or below them.

Tested on: K12877-001-R-J1-PDC complex spheroid viability
Experiment: Anticancer human tumor K12877-001-R-J1-PDC patient-derived lung adenocarcinoma cell line growth inhibition [RAS]
Conditions: for IC50: curve of first compound; for viability, T/C: stronger effect = lower value
In short: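 Agents were tested in combination matrices in half-log decrements from a top concentration at or near clinical Cmax (10 microM if undetermined). Targets were multi-cell spheroids of tumour lines plus HUVEC and MSC stromal cells.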
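Note: spheroids exposed to agents for one week before readout.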
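Throughout, for viability, T/C: tumour cells co-cultured with HUVEC and mesenchymal stem cells in spheroids.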

- IC50 (second compound 0.000949 µM): 4.82 nM
- IC50 (second compound 0.003 µM): 4.39 nM
- IC50 (second compound 0.00949 µM): 3.87 nM
- IC50 (second compound 0.03 µM): 4.32 nM
- IC50 (second compound 0.0949 µM): 3.81 nM
- IC50 (second compound 0.3 µM): 2.73 nM
SMILES: CCc1c2c(nc3ccc(O)cc13)-c1cc3c(c(=O)n1C2)COC(=O)[C@]3(O)CC + CCn1c(-c2cc(N3CCN(C)CC3)cnc2C(C)OC)c2c3cc(ccc31)-c1csc(n1)CC(NC(=O)C1CC1C)C(=O)N1CCCC(N1)C(=O)OCC(C)(C)C2
- viability, T/C (second compound 0.000949 µM, first compound 0.000949 µM): 78.3%
- viability, T/C (second compound 0.000949 µM, first compound 0.003 µM): 72.4%
- viability, T/C (second compound 0.000949 µM, first compound 0.00949 µM): 18.2%
- viability, T/C (second compound 0.000949 µM, first compound 0.03 µM): 7.02%
- viability, T/C (second compound 0.000949 µM, first compound 0.0949 µM): 3.48%
- viability, T/C (second compound 0.000949 µM, first compound 0.3 µM): 2.43%
- viability, T/C (second compound 0.003 µM, first compound 0.000949 µM): 67.2%
- viability, T/C (second compound 0.003 µM, first compound 0.003 µM): 68.8%
- viability, T/C (second compound 0.003 µM, first compound 0.00949 µM): 13.6%
- viability, T/C (second compound 0.003 µM, first compound 0.03 µM): 6.6%
- viability, T/C (second compound 0.003 µM, first compound 0.0949 µM): 4.13%
- viability, T/C (second compound 0.003 µM, first compound 0.3 µM): 2.12%
- viability, T/C (second compound 0.00949 µM, first compound 0.000949 µM): 71.6%
- viability, T/C (second compound 0.00949 µM, first compound 0.003 µM): 59.8%
- viability, T/C (second compound 0.00949 µM, first compound 0.00949 µM): 15.8%
- viability, T/C (second compound 0.00949 µM, first compound 0.03 µM): 6.3%
- viability, T/C (second compound 0.00949 µM, first compound 0.0949 µM): 3.36%
- viability, T/C (second compound 0.00949 µM, first compound 0.3 µM): 1.64%
- viability, T/C (second compound 0.03 µM, first compound 0.000949 µM): 84.9%
- viability, T/C (second compound 0.03 µM, first compound 0.003 µM): 67.8%
- viability, T/C (second compound 0.03 µM, first compound 0.00949 µM): 11.5%
- viability, T/C (second compound 0.03 µM, first compound 0.03 µM): 6.66%
- viability, T/C (second compound 0.03 µM, first compound 0.0949 µM): 2.86%
- viability, T/C (second compound 0.03 µM, first compound 0.3 µM): 1.43%
- viability, T/C (second compound 0.0949 µM, first compound 0.000949 µM): 94.8%
- viability, T/C (second compound 0.0949 µM, first compound 0.003 µM): 59.5%
- viability, T/C (second compound 0.0949 µM, first compound 0.00949 µM): 13.8%
- viability, T/C (second compound 0.0949 µM, first compound 0.03 µM): 5.27%
- viability, T/C (second compound 0.0949 µM, first compound 0.0949 µM): 3.05%
- viability, T/C (second compound 0.0949 µM, first compound 0.3 µM): 1.38%
- viability, T/C (second compound 0.3 µM, first compound 0.000949 µM): 85.1%
- viability, T/C (second compound 0.3 µM, first compound 0.003 µM): 46.9%
- viability, T/C (second compound 0.3 µM, first compound 0.00949 µM): 9.52%
- viability, T/C (second compound 0.3 µM, first compound 0.03 µM): 4.79%
- viability, T/C (second compound 0.3 µM, first compound 0.0949 µM): 3.58%
- viability, T/C (second compound 0.3 µM, first compound 0.3 µM): 1.11%

- IC50 (second compound 0.000949 µM): > 1000 nM
- IC50 (second compound 0.003 µM): > 1000 nM
- IC50 (second compound 0.00949 µM): > 1000 nM
- IC50 (second compound 0.03 µM): > 1000 nM
- IC50 (second compound 0.0949 µM): > 1000 nM
- IC50 (second compound 0.3 µM): > 1000 nM
SMILES: C=CC(=O)Nc1cc(Nc2nccc(-c3cn(C)c4ccccc34)n2)c(OC)cc1N(C)CCN(C)C + CCn1c(-c2cccnc2C(C)OC)c2c3cc(ccc31)N1CCOC(CC(NC(=O)C(C(C)C)N(C)C(=O)C3(F)CCN(C(=O)C#CC(C)(C)N(C)C)CC3)C(=O)N3CCCC(N3)C(=O)OCC(C)(C)C2)C1
- viability, T/C (second compound 0.000949 µM, first compound 0.00316 µM): 90.4%
- viability, T/C (second compound 0.000949 µM, first compound 0.01 µM): 75.9%
- viability, T/C (second compound 0.000949 µM, first compound 0.0316 µM): 85.4%
- viability, T/C (second compound 0.000949 µM, first compound 0.1 µM): 78.5%
- viability, T/C (second compound 0.000949 µM, first compound 0.316 µM): 78%
- viability, T/C (second compound 0.000949 µM, first compound 1 µM): 69.8%
- viability, T/C (second compound 0.003 µM, first compound 0.00316 µM): 78.2%
- viability, T/C (second compound 0.003 µM, first compound 0.01 µM): 75.2%
- viability, T/C (second compound 0.003 µM, first compound 0.0316 µM): 69.3%
- viability, T/C (second compound 0.003 µM, first compound 0.1 µM): 70.5%
- viability, T/C (second compound 0.003 µM, first compound 0.316 µM): 74.3%
- viability, T/C (second compound 0.003 µM, first compound 1 µM): 70.3%
- viability, T/C (second compound 0.00949 µM, first compound 0.00316 µM): 82.3%
- viability, T/C (second compound 0.00949 µM, first compound 0.01 µM): 65%
- viability, T/C (second compound 0.00949 µM, first compound 0.0316 µM): 75.1%
- viability, T/C (second compound 0.00949 µM, first compound 0.1 µM): 71%
- viability, T/C (second compound 0.00949 µM, first compound 0.316 µM): 71.6%
- viability, T/C (second compound 0.00949 µM, first compound 1 µM): 62.7%
- viability, T/C (second compound 0.03 µM, first compound 0.00316 µM): 80.5%
- viability, T/C (second compound 0.03 µM, first compound 0.01 µM): 73.2%
- viability, T/C (second compound 0.03 µM, first compound 0.0316 µM): 78.7%
- viability, T/C (second compound 0.03 µM, first compound 0.1 µM): 79%
- viability, T/C (second compound 0.03 µM, first compound 0.316 µM): 64.5%
- viability, T/C (second compound 0.03 µM, first compound 1 µM): 65%
- viability, T/C (second compound 0.0949 µM, first compound 0.00316 µM): 67.2%
- viability, T/C (second compound 0.0949 µM, first compound 0.01 µM): 72.7%
- viability, T/C (second compound 0.0949 µM, first compound 0.0316 µM): 74%
- viability, T/C (second compound 0.0949 µM, first compound 0.1 µM): 69.5%
- viability, T/C (second compound 0.0949 µM, first compound 0.316 µM): 63.5%
- viability, T/C (second compound 0.0949 µM, first compound 1 µM): 48.5%
- viability, T/C (second compound 0.3 µM, first compound 0.00316 µM): 69.8%
- viability, T/C (second compound 0.3 µM, first compound 0.01 µM): 67%
- viability, T/C (second compound 0.3 µM, first compound 0.0316 µM): 71.2%
- viability, T/C (second compound 0.3 µM, first compound 0.1 µM): 70.2%
- viability, T/C (second compound 0.3 µM, first compound 0.316 µM): 58.7%
- viability, T/C (second compound 0.3 µM, first compound 1 µM): 52.8%
